# Measurements as given in ChEMBL document CHEMBL4418499, “Inhibitors of trim33 and methods of use” (2018).
# Experiments:
# [1] = target: T1, E3 ubiquitin-protein ligase TRIM33 (Homo sapiens, UniProt Q9UPN9); test: Inhibition of recombinant TRIM33 PHD bromodomain (unknown origin) using biotinylated H3 peptide (H3K9me3K18ac) by AlphaScreen assay
# T1 sequence (Q9UPN9 whole entry): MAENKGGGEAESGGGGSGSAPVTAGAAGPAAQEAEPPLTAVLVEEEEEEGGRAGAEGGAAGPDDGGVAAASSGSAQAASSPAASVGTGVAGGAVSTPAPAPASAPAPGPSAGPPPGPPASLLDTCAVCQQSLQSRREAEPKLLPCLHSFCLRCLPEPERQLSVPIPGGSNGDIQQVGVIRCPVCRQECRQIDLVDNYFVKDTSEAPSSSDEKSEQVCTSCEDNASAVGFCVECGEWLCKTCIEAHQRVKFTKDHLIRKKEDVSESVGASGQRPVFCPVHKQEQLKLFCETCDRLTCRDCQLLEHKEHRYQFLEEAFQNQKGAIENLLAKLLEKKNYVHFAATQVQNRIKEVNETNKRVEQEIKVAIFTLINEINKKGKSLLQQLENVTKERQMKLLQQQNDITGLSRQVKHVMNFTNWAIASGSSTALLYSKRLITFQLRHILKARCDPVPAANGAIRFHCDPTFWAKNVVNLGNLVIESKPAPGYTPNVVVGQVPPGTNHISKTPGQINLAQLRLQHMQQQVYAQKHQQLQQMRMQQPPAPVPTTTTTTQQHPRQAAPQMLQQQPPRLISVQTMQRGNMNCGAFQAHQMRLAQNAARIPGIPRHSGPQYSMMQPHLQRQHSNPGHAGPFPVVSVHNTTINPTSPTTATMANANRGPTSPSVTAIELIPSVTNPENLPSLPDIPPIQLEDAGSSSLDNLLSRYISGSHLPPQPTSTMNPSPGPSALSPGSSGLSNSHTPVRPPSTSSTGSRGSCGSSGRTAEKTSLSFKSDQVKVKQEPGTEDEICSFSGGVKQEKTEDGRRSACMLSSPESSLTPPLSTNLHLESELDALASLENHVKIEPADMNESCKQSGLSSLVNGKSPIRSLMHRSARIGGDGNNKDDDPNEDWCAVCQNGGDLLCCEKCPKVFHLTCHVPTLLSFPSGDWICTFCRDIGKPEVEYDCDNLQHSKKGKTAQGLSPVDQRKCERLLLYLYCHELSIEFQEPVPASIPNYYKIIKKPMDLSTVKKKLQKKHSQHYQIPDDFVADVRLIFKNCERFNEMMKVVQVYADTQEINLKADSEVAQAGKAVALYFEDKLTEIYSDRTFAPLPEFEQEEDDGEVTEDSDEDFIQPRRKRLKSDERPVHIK
# [2] = target: T2, Transcription intermediary factor 1-alpha (Homo sapiens, UniProt O15164); test: Inhibition of recombinant TRIM24 (unknown origin) using biotinylated H3 peptide (H3K9me3K18ac) by AlphaScreen assay
# T2 sequence (O15164 whole entry): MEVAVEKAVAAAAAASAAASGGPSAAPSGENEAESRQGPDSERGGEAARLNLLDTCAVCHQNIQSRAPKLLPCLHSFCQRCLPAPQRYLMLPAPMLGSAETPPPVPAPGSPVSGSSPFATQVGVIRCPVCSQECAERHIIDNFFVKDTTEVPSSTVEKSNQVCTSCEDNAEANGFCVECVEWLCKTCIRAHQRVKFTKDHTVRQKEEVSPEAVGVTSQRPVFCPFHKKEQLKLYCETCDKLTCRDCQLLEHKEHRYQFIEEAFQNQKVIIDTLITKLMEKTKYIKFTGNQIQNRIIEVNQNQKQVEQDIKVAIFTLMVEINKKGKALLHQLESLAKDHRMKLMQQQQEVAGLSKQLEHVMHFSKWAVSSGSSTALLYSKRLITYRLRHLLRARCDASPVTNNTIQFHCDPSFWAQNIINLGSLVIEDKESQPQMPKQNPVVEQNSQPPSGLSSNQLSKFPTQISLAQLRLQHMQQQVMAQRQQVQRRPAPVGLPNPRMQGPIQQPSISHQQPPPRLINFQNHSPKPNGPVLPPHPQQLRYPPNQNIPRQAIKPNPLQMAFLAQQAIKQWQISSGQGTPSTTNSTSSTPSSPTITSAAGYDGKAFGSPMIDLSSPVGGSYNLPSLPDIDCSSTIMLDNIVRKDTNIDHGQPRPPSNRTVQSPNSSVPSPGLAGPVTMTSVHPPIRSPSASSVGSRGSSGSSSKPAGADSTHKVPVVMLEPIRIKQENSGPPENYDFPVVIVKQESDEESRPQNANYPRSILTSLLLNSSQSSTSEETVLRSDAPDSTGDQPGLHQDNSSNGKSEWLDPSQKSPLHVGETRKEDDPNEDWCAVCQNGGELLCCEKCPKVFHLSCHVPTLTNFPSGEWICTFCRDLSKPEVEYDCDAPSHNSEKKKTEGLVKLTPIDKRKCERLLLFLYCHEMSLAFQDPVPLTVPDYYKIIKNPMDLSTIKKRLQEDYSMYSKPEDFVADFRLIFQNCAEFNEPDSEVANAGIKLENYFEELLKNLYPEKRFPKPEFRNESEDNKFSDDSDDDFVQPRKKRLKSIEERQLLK
# Homo sapiens = species on record: Homo sapiens; test: Selectivity index, ratio of IC50 for recombinant TRIM24 (unknown origin) to IC50 for recombinant TRIM33 PHD bromodomain (unknown origin)
IC50 [1] [µM],IC50 [2] [µM],Ratio IC50 (Homo sapiens),Structure (SMILES)
19.3,77.2,3.99,COC(=O)c1ccc2nc(-c3nc[nH]c3C)c(Nc3ccc(OC)cc3)n2c1
450,194,0.43,Cc1nc(-c2nc3ccc(Br)cn3c2NCCN2CCOCC2)c[nH]1
71,119,1.67,Cc1[nH]cnc1-c1nc2cnccn2c1NCCN1CCOCC1
11.3,81.7,7.21,Cc1nc(-c2nc3ccc(Br)cn3c2NCc2ccc(C#N)cc2)c[nH]1
66,819,12.4,CCCOc1ccn2c(C(C)=O)cc(-c3nc4cnccn4c3NCc3ccc(C#N)cc3)c2c1
8.72,142,16.2,CCCOc1ccn2c(C(C)=O)cc(-c3nc4ccccn4c3NC3CCCCC3)c2c1
20.4,283,13.9,COc1ccc(CCNc2c(-c3ccc4nccn4c3)nc3ccc(Br)cn23)cc1OC
69.6,250,3.6,CCCOc1ccn2c(C(C)=O)cc(-c3nc4ccccn4c3NCCN3CCOCC3)c2c1
71.4,2870,40.3,COC(=O)c1ccc2nc(-c3c[nH]c(C)n3)c(NCCN3CCOCC3)n2c1
207,54.8,0.26,Cc1nc(-c2nc3cnccn3c2NCc2ccc(C#N)cc2)c[nH]1
16.4,42.8,2.61,Cc1[nH]cnc1-c1nc2ccccn2c1NCc1ccc(C#N)cc1
3.6,13,3.62,Cc1nc(-c2nc3ccc(Br)cn3c2NC2CCCCC2)c[nH]1
21.7,372,17.1,CCCOc1ccn2c(C(C)=O)cc(-c3nc4ccccn4c3NCCc3ccc(OC)c(OC)c3)c2c1
46.1,818,17.7,N#Cc1ccc(CNc2c(-c3ccc4nccn4c3)nc3cnccn23)cc1
26.8,267,9.97,Cc1nc(-c2nc3ccccn3c2NCc2ccc(C#N)cc2)c[nH]1
1.03,8.48,8.27,Cc1[nH]cnc1-c1nc2ccc(Br)cn2c1NC1CCCCC1
38.3,88.3,2.3,COc1ccc(Nc2c(-c3ccc4nccn4c3)nc3cnccn23)cc1
70.3,224,3.19,COc1ccc(Nc2c(-c3ccc4nccn4c3)nc3ccc(Br)cn23)cc1

IC50 [1] [µM],IC50 [2] [µM],Ratio IC50 (Homo sapiens),Structure (SMILES)
121,98.4,0.82,Cc1[nH]cnc1-c1nc2cnccn2c1NCc1ccc(C#N)cc1
7.17,622,86.8,COC(=O)c1ccc2nc(-c3c[nH]c(C)n3)c(NCCc3ccc(OC)c(OC)c3)n2c1
23.7,835,35.3,CCCOc1ccn2c(C(C)=O)cc(-c3nc4cnccn4c3NCCc3ccc(OC)c(OC)c3)c2c1
48.1,296,6.16,N#Cc1ccc(CNc2c(-c3ccc4nccn4c3)nc3ccc(Br)cn23)cc1
131,1890,14.5,Cc1nc(-c2nc3cnccn3c2NCCN2CCOCC2)c[nH]1
14.7,7.32,0.5,COc1ccc(Nc2c(-c3nc[nH]c3C)nc3cnccn23)cc1
8.57,111,13,COC(=O)c1ccc2nc(-c3c[nH]c(C)n3)c(Nc3ccc(OC)cc3)n2c1
15.7,5980,380,COC(=O)c1ccc2nc(-c3ccc4nccn4c3)c(NCCc3ccc(OC)c(OC)c3)n2c1
87.4,2080,23.8,N#Cc1ccc(CNc2c(-c3ccc4nccn4c3)nc3ccccn23)cc1
17.2,141,8.16,COCCNc1c(-c2c[nH]c(C)n2)nc2ccccn12
18.9,180,9.48,COC(=O)c1ccc2nc(-c3c[nH]c(C)n3)c(NC3CCCCC3)n2c1
151,4980,32.9,CCCOc1ccn2c(C(C)=O)cc(-c3nc4cnccn4c3NCCN3CCOCC3)c2c1
9.6,159,16.6,CCCOc1ccn2c(C(C)=O)cc(-c3nc4ccccn4c3Nc3ccc(OC)cc3)c2c1
22.2,375,16.9,COC(=O)c1ccc2nc(-c3ccc4nccn4c3)c(Nc3ccc(OC)cc3)n2c1
27.8,242,8.73,Cc1nc(-c2nc3ccccn3c2NCCN2CCOCC2)c[nH]1
13.8,249,18.1,c1ccn2c(NC3CCCCC3)c(-c3ccc4nccn4c3)nc2c1
95.6,1040,10.9,CCCOc1ccn2c(C(C)=O)cc(-c3nc4ccc(C(=O)OC)cn4c3NCCN3CCOCC3)c2c1
0.00319,1.71,538,COc1ccc(Nc2c(-c3c[nH]c(C)n3)nc3ccccn23)cc1
